Experimental data published in patent US20260284203A1 (priority 2023, published 2026).
Like-named read-outs stand apart in the source and are kept apart here.

Key:
Supercoiled plasmid = experiment: In vitro DNA nicking assay; type: biochemical, E. coli; conditions: 10 μM CuCl2, 3 hours at room temperature (21° C.) in the dark
Method: The capacity of rCAM compounds to cause DNA damage was evaluated using an in vitro DNA nicking assay. Specifically, the double stranded DNA (dsDNA) nicking activity of exemplary rCAM DP41-0012 was compared to CAM compounds bersacapavir and NVR-3-778, and DMSO controls.
Supercoiled plasmid, the substrate for this assay, was purified from E. coli, using a Qiagen miniprep kit. A “master mix” of 3 ng/μl Miniprep DNA, 10 μM CuCl2, 20 mM TrisHCl pH7.5 was prepared. Samples included 99 μl of master mix plus 1 μl of compound or control. Reactions were incubated for 3 hours at room temperature (21° C.) in the dark. Aliquots of the reactions (20 μl) were resolved on a 0.8% TAE agarose gel with 1/20,000 SYBR Safe stain electrophoresed at 80V for 90 minutes. The gel was visualized on a ChemidocMP in fluorescein blot mode.

[1] = test system: in vitro transcribed pregenomic HBV RNA (pgRNA); type: biochemical; conditions: for effect on pgRNA amplification / RNA transcription (RT-qPCR, Cp gene): either temperature (25° C. or 37° C.)
Cp149 dimers = Cp149 dimers (Hepatitis B virus subtype adyw, UniProt P03147); experiment: Cp149 dimer assembly with rCAM visualized by transmission electron microscopy; type: biochemical, HBV; conditions: dimer:rCAM 1:5, NaCl 300 mM, overnight at 25° C.
Method: Cp dimers were assembled with HAP-PEG2-CBL and HAP-PEG4-CBL to verify the HAP backbone's ability to bind the dimer-dimer interface. Cp149 dimers were mixed with each rCAM in a 1:5 ratio (dimer:rCAM). Assembly was induced by addition of NaCl (300 mM) followed by incubation overnight at 25° C. Assembly products were visualized via transmission electron microscopy (TEM) (FIG. 10). Assembly in NaCl alone led to normal spherical capsids (FIG. 10A). […] Boume, C., et al., J Virol 82:10262, 2008.

[2] = test system: in vitro transcribed pregenomic HBV RNA (pgRNA); experiment: pgRNA activity assay by denaturing agarose gel electrophoresis; type: biochemical; conditions: for RNA signal on gel, free pgRNA: 100 μM; for RNA signal on gel, free pgRNA / RNA bands on gel, free pgRNA: 1% or 10% DMSO; for RNA bands on gel, free pgRNA / pgRNA band on denaturing agarose gel: 900 μM; for pgRNA band on denaturing agarose gel: 1 hour
[3] = molecular target: purified capsid protein assembly domain, Cp149 (Hepatitis B virus subtype adyw, UniProt P03147); experiment: Capsid assembly assay (size exclusion chromatography); type: biochemical, HBV; conditions: 10 μM Cp149 dimer, 20 μM compound, 24 h at room temperature, versus capsid control
Method: Stimulation of HBV virus assembly is a known property of CAM molecules. As structural changes can have unpredictable effects on function, a capsid assembly assay was conducted with exemplary rCAM DP41-0012 to evaluate whether the construct retained CAM activity. Relative peak HBV capsid volume following exposure to the exemplary rCAM was determined in comparison to dimer, DMSO, and capsid controls, along with CAM compounds bersacapavir and NVR-3-778.
To test capsid assembly, samples or controls were incubated for 20 minutes with purified capsid protein assembly domain, Cp149, so that final conditions were 10 μM Cp149 dimer 20 μM compound or control 2% DMSO 50 mM TrisHCl pH 7.5. To this mixture was added an equal volume of 600 mM NaCl 50 mM TrisHCl pH 7.5. Reactions were equilibrated for 24 h at room temperature and the resolved by size exclusion chromatography using a 10/300 Superose6 column running at 0.5 ml/minute. The running buffer for this column was 50 mM TrisHCl 300 mM NaCl. Elution profiles were recorded by absorbance at 280 nm. Integrated capsid peaks eluting between 16 and 20 minutes and dimer peaks eluting between 34 and 39 minutes were reported.

[4] = 25° C. and 37° C. (both temperature conditions)

Chain of Cp149 dimers (P03147 1-149): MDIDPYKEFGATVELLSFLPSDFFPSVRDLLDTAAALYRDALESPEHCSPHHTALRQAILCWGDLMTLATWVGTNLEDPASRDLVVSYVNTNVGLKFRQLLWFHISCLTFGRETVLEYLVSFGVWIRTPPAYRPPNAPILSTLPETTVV
Chain of purified capsid protein assembly domain, Cp149 (P03147 1-149): as above

C[C@H](NS(=O)(=O)c1cc(C(=O)Nc2ccc(F)c(C#N)c2)n(C)c1)C(F)(F)F [bersacapavir]
plasmid DNA form seen on agarose gel (dsDNA nicking activity) (Supercoiled plasmid): supercoiled plasmid substrate was detectable

CO[C@@]12[C@H](COC(N)=O)C3=C(C(=O)C(C)=C(N)C3=O)N1C[C@@H]1N[C@@H]12 [mitomycin C]
effect on pgRNA amplification / RNA transcription (RT-qPCR, Cp gene) ([1]; 900 μM, 1 hour): does affect RNA transcription

COC(=O)C1=C(CN2CCN(C(=O)CCOCCOCCOCCOCCOC(=O)CCCc3ccc(N(CCCl)CCCl)cc3)CC2)NC(c2ccccn2)=NC1c1ccc(F)cc1Cl (stereo not drawn) [HAP-PEG4-CBL]
assembly products seen by TEM (Cp149 dimers): floret-shaped, aberrant particles | RNA signal on gel, free pgRNA ([2]; 37° C.): slight reduction in RNA signal | RNA bands on gel, free pgRNA ([2]; 37° C.): almost complete dissipation of RNA bands

N.N.[Cl][Pt][Cl] [cisplatin]
decrease in RNA levels (RT-qPCR, Cp gene) [1]: 3 log | reduction in RNA amplification (RT-qPCR, Cp gene) [1]: approximately 1 log | pgRNA band on denaturing agarose gel [2, 4]: faster migrating and smeared bands

O=C(Nc1cc(F)c(F)c(F)c1)c1ccc(F)c(S(=O)(=O)N2CCC(O)CC2)c1 [NVR-3-778]
plasmid DNA form seen on agarose gel (dsDNA nicking activity) (Supercoiled plasmid): supercoiled plasmid substrate was detectable

CN(C)c1nc(N(C)C)nc(N(C)C)n1 [altretamine]
effect on pgRNA amplification / RNA transcription (RT-qPCR, Cp gene) ([1]; 900 μM, 1 hour): does affect RNA transcription

COC(=O)C1=C(CN2CCN(C(=O)CCOCCOCCOC(=O)CCCc3ccc(N(CCCl)CCCl)cc3)CC2)NC(c2ccccn2)=NC1c1ccc(F)cc1Cl (stereo not drawn) [HAP-PEG2-CBL, Methyl 6-((4-(3-(2-(2-((4-(4-(bis(2-chloroethyl)amino)phenyl)butanoyl)oxy)ethoxy)ethoxy)propanoyl)piperazin-1-yl)methyl)-4-(2-chloro-4-fluorophenyl)-2-(pyridin-2-yl)-1,4-dihydropyrimidine-5-carboxylate]
assembly products seen by TEM (Cp149 dimers): both spherical capsids, faceted/broken capsids, and flat, aberrant structures | RNA signal on gel, free pgRNA ([2]; 37° C.): slight reduction in RNA signal | RNA bands on gel, free pgRNA ([2]; 37° C.): almost complete dissipation of RNA bands

Cn1cc(S(=O)(=O)NCCNC(=O)c2cc(O)c(O)c(O)c2)cc1C(=O)Nc1ccc(F)c(C#N)c1 [DP41-0012, N-(3-cyano-4-fluorophenyl)-1-methyl-4-(N-(2-(3,4,5-trihydroxybenzamido)ethyl)-sulfamoyl)-1H-pyrrole-2-carboxamide]
plasmid DNA form seen on agarose gel (dsDNA nicking activity) (Supercoiled plasmid): DNA band corresponding to the size of a nicked circle | relative peak capsid volume [3]: exceeded that of the capsid control

O=C(O)CCCc1ccc(N(CCCl)CCCl)cc1 [chlorambucil]
reduction in RNA amplification (RT-qPCR, Cp gene) ([1]; 900 μM, 1 hour, 25° C.): approximately 1 log | decrease in RNA levels (RT-qPCR, Cp gene) ([1]; 900 μM, 1 hour, 37° C.): 4 log | pgRNA band on denaturing agarose gel [2, 4]: completely dissipate RNA

phleomycin
effect on pgRNA amplification / RNA transcription (RT-qPCR, Cp gene) ([1]; 900 μM, 1 hour): does not suppress pgRNA amplification appreciably | pgRNA band on denaturing agarose gel ([2]; 37° C.): completely disappeared | pgRNA band on denaturing agarose gel ([2]; room temperature (25° C.)): reduced in width
